In paper PMC8609999, “A Phase I trial of talazoparib in patients with advanced hematologic malignancies” (International Journal of Hematologic Oncology, 2021):
Like-named read-outs stand apart in the source and are kept apart here. Marks after values point to notes of the source that are not given here.

How the values were obtained:
[1] = test system: patients with advanced hematologic malignancies (cohort 1: AML/MDS; cohort 2: CLL/MCL); format: in vivo, human
From the text: AEs were coded in accordance with The Medical Dictionary for Regulatory Activities, version 16.1. Treatment-emergent AEs (TEAEs) were defined as AEs that were new, increased in frequency, or worsened in severity, after the first talazoparib dose. AEs counted as drug-related had been classified by investigators as possibly or probably related to talazoparib.
All analyses in this open-label, dose-finding study were descriptive in nature. Descriptive summaries of continuous variables, including the mean, standard deviation (SD), median, range, and, where appropriate, 95% CI and/or interquartile range, were determined using the Statistical Analysis Software (SAS), version 9.2. Descriptive summaries of categorical variables included the number of patients and percentages. Data were summarized with respect to the dose level at which the patients started treatment. Cohorts were defined as all patients who began treatment at a given dose level.

[2] = Plasma pharmacokinetics after multiple daily talazoparib dosing; format: in vivo, human
Procedure: (§1) Plasma and urine samples were assayed for talazoparib concentrations by Covance Laboratories Inc., using validated high performance liquid chromatography with tandem mass spectrometry detection methods. The lower limits of quantitation for […] and urine were 5.0 pg/ml and 25.0 pg/ml, respectively. Evaluated PK parameters included maximum concentration (Cmax), minimum concentration (Cmin), time to maximum plasma concentration (Tmax), area under the curve from time 0 to last measurable concentration (AUC0–t), area under the curve from time 0 to 24 h post-dose (AUC0–24), amount of drug excreted into the urine from time 0 to 24 h (Ae0–24), fraction of administered drug excreted in the urine from time 0 to 24 h (Fe0–24), and average renal clearance from time 0 to 24 h (ARC0–24); ARC0–24 was calculated as (Ae0–24/AUC0–24). PK parameters were calculated using Phoenix™ WinNonlin® 6.1.
(§2) Summary statistics for plasma and urine talazoparib concentrations and PK parameters were calculated by grouping subjects in cohorts 1 and 2 together to provide a larger sample size at each dose level.

[3] = Urine pharmacokinetics after multiple daily talazoparib dosing; format: in vivo, human
Procedure: as §1, §2

[4] = test system: advanced hematologic malignancies (AML, MDS, CLL, MCL); assay: Anti-leukemic activity (best overall response); format: in vivo, human
Procedure: Objective response, duration of objective response, and time to progression or treatment failure were recorded. Response was measured by the following response criteria: the European leukemiaNet for subjects with AML [30], the International Working Group for Prognosis in MDS for subjects with MDS [31, 32], the International Workshop on Chronic Lymphocytic leukemia (iwCLL) for subjects with CLL, and the Revised Response Criteria for MCL [34].

[5] = test system: germline BRCA1/2-mutated HER2- advanced breast cancer; parameters: method as in PMID 30110579; details: 1 mg once daily; cited from earlier work
PARP = test system: PARP; parameters: method as in PMID 28302823, PMID 24356813, PMID 32241924; details: in vitro; cited from earlier work
[6] = test system: patients with germline BRCA1/2 mutations and solid tumors; details: NCT01286987; cited from earlier work
[7] = 1.35 mg/day, cycle 2 day 1, plasma, n = 3, median (range)
[8] = 1.35 mg/day, multiple daily dosing, urine, n = 2, geometric mean (geometric CV%)

SMILES: Cn1ncnc1[C@H]1c2n[nH]c(=O)c3cc(F)cc(c23)N[C@@H]1c1ccc(F)cc1 [talazoparib]
- Any study drug-related AEs of CTCAE Grade 5 (death) ([1]; Cohort 2, 0.10 mg/day (n = 3)): 0 (0.0) n (%)
- Any AEs of CTCAE Grade of 5 (death) ([1]; Cohort 2, 0.90 mg/day (n = 5)): 0 (0.0) n (%)
- Any study drug-related AEs of CTCAE Grade 5 (death) ([1]; Cohort 2, 0.90 mg/day (n = 5)): 0 (0.0) n (%)
- Any AEs of CTCAE Grade of 5 (death) ([1]; Cohort 2, All (n = 8)): 1 (12.5) n (%)
- Any study drug-related AEs of CTCAE Grade 5 (death) ([1]; Cohort 2, All (n = 8)): 0 (0.0) n (%)
- Deaths ([1]; both cohorts, N = 33, during study or within 30 days after last dose): 39.4%
- Patients with Grade 3/4 TEAEs ([1]; human, in vivo): 84.8%
- Patients with TEAEs leading to dose interruption/reduction related to study drug ([1]; human, in vivo): 30.3%
- Patients with a Grade 3/4 SAE ([1]; human, in vivo): 51.5%
- Patients with a drug-related SAE ([1]; human, in vivo): 9.1%
- Patients with at least one TEAE leading to dose interruption and/or reduction ([1]; human, in vivo): 45.5%
- Patients with drug-related Grade 3/4 TEAEs ([1]; human, in vivo): 42.4%
- Patients with drug-related TEAEs (possibly or probably related) ([1]; human, in vivo): 69.7%
- Patients with serious AEs (SAEs) ([1]; human, in vivo): 75.8%
- TEAE: Fatigue ([1]; n = 33, All grades (Grade 1–4 only)): 13 (39.4) n (%)
- AR (accumulation ratio) [2, 7]: 3.80 (3.28, 4.22)
- Tmax [2, 7]: 1.03 (1.00, 4.00) hr
- AUC(0-t) ([2]; human, in vivo, 1.35 mg/day, cycle 2 day 1, plasma, n = 3, geometric mean (geometric CV%), read-out: AUC0–24): 226 ng·h/mL
- AUC(0-t) ([2]; human, in vivo, 1.35 mg/day, cycle 2 day 1, plasma, n = 3, geometric mean (geometric CV%), read-out: AUC0–t): 225 ng·h/mL
- Cmax ([2]; human, in vivo, 1.35 mg/day, cycle 2 day 1, plasma, n = 3, geometric mean (geometric CV%)): 19.7 ng/mL
- Total exposure vs dose ([2]; in vivo): dose-proportional increases in total exposure
- Ae0–24 [3, 8]: 0.531 (29.8) mg
- Fe0–24 (fraction of administered drug excreted in urine) [3, 8]: 0.393 (29.8)
- Major clearance pathway ([3]; human, in vivo): urinary elimination is the major clearance pathway
- Stable disease (best overall response) ([4]; Cohort 1, AML (n = 21)): 9 (42.9) n (%)
- Stable disease ≥16 weeks ([4]; Cohort 1, AML (n = 21)): 2 (9.5)^‡ n (%)
- Stable disease (best overall response) ([4]; Cohort 1, All (n = 25)): 13 (52.0) n (%)
- Stable disease ≥16 weeks ([4]; Cohort 1, All (n = 25)): 5 (20.0) n (%)
- Stable disease (best overall response) ([4]; Cohort 1, MDS (n = 4)): 4 (100) n (%)
- Stable disease ≥16 weeks ([4]; Cohort 1, MDS (n = 4)): 3 (75.0)^§ n (%)
- Stable disease (best overall response) ([4]; Cohort 2, All (n = 8)): 5 (62.5) n (%)
- Stable disease ≥16 weeks ([4]; Cohort 2, All (n = 8)): 1 (12.5) n (%)
- Stable disease (best overall response) ([4]; Cohort 2, CLL (n = 4)): 3 (75.0) n (%)
- Stable disease ≥16 weeks ([4]; Cohort 2, CLL (n = 4)): 0 n (%)
- Stable disease (best overall response) ([4]; Cohort 2, MCL (n = 4)): 2 (50.0) n (%)
- Stable disease ≥16 weeks ([4]; Cohort 2, MCL (n = 4)): 1 (25.0) n (%)
- Patients with stable disease ([4]; both cohorts, N = 33): 54.5%
- Stable disease of at least 16 weeks' duration ([4]; both cohorts, N = 33): six
- Transfusion independence ([4]; one with MDS and one with AML): two
- Progression-free survival compared with physician's choice of chemotherapy [5]: significantly longer progression-free survival
- PARP-trapping activity compared with other PARP inhibitors (PARP): higher PARP-trapping activity
- Maximum tolerated dose (MTD) [6]: 1 mg once daily
